Source: patent US20090264533A1, “Methods and Compositions for Modulating RHO-Mediated Gene Transcription” (priority 2005, published 2009)
pEC50, pIC50: −log10 of the molar value. “And” between values parts separate entries of the source, which are not always exact repeats. Equal values may be shown once. “Also recorded” adds a separate entry of the source. Read-outs that look alike come from different tables or passages of the source.

How the values were obtained:
PC-3 cells [1] = experiment: Cell rounding assay in PC-3 cells; format: cell-based, human; conditions: 30 min
Description: Cell Rounding Assay—The day before transfection, PC-3 cells were grown on laminin-coated coverslips in 12-well plates until […]. Cells were then transfected with 0.2 μg of EGFP cDNA. To disrupt rho signaling GFP was co-transfected with either a C3 exotoxin expression vector (0.5 μg) or with 2.0 μg of the indicated siRNA or inverted control along with 8 μl/well of LipofectAMINE 2000. At 45 h post-transfection, cultures were changed to serum-free medium and 6 h later treated with either buffer, thrombin (100 nM), or LPA (50 μM) for 30 min. Cells were then fixed with 4% paraformaldehyde for 10 min and GFP images obtained using an Olympus fluorescence microscope with a 20× objective. Fluorescent cells were counted (100-300 per coverslip) and the percentage of rounded cells determined. Cell rounding at 30 min was dose-dependent (EC50 80 nM for thrombin and 50 μM for LPA) and reversible upon removal of thrombin for 45 min.
rho stimulates several types of cytoskeletal rearrangements. […] In these studies, at 48 h after transfection, cells were stimulated with thrombin (100 nM) or LPA (50 μM) for 30 min, fixed, and fluorescence images taken. […] At 48 h post-transfection cells were stimulated with thrombin or LPA and analyzed as described above. One-hundred green cells from each coverslip were counted, and the percentage of round cells was determined. […]

ras = experiment: ras-stimulated transcriptional signals (c-fos and SRE.L reporters, FIG. 14); format: cell-based; conditions: for ras-stimulated transcriptional signals: c-fos reporter, FIG. 14 bottom panel
Excerpt: FIG. 14. […] The rho reporter SRE.L can also be activated by ras (probably via rho activation).

SRE Luciferase = SRE Luciferase reporter with different rho pathway activators (PC-3 cells, FIG. 8, FIG. 13); format: cell-based, human; conditions: for luciferase expression induced by G13, LARG or constitutively active rhoA-GV: FIG. 8
Description: (§1) FIG. 8 Inhibition of reporter gene transcription in PC-3 cells. CCG 1423 (10 μM) acts at the transcriptional level inhibiting SRE Luciferase stimulated by both upstream (Gα13, LARG, and RhoA-GV) and downstream signals (MKL1).
FIG. 13. Inhibition by CCG-1423 of three different rho pathway activators (G13, rhoA-GV, and MKL1) with no effect on control reporter plasmid CMV-Renilla.
(§2) The point of action of these inhibitors in the assay was investigated by transfecting the cells with different activators of the pathway (rho, MKL1, and an activated SRF analog SRF-VP16). […] This is consistent with the known site of action of Latruculin. […] Thus, the compounds may be acting by inhibiting MKL- or SRF- or both MKL and SRF-dependent gene transcription. […] Regardless of the mechanism of action, the present invention describes a novel gene transcription inhibitor that selectively prevents MKL/SRF-mediated signals.

[2] = test system: SKOV-3 ovarian cancer cell line; experiment: BrdU incorporation in SKOV-3 cells; format: cell-based
SKOV-3 cells [3] = experiment: Matrigel matrix invasion by SKOV-3 cells; format: cell-based
Description: FIG. 11 CCG-1423 inhibits the spontaneous matrix invasion by PC-3 cells. Top) One prostate and three ovarian cancer lines (50,000 cells per well) were lifted with trypsin, suspended in serum free medium and plated on 24-well Matrigel inserts with (solid) or without (hatched) 30 μM LPA in the lower chamber. After 24 hours, cells above the filter were wiped off and the remaining cells were fixed, stained, and counted to determine the number of cells that had invaded the Matrigel. Bottom) Matrigel invasion by PC-3 cells (-LPA) and SKOV-3 cells (+30 μM LPA) was tested in the presence of the indicated concentrations of CCG-1423.

RhoC = RhoC transcriptional signal, SRE-Luciferase / CMV-Renilla dual reporters (FIG. 6); format: cell-based; conditions: 6 micromolar, added 6 hours after transfection, read 16 hours later
Description: (§3) FIG. 6 CCG-1423 inhibits both RhoA and RhoC transcriptional signals. Cells were transfected with the dual reporters SRE-Luciferase and CMV-Renilla then 6 hours later, 6 micromolar CCG-1423 was added and reporter activity measured 16 hours later.

[4] = test system: PC-3 prostate cancer cells; experiment: DNA synthesis (BrdU incorporation) in PC-3 cells; format: cell-based, human; conditions: presence of serum
Description: FIG. 9 Serum and LPA stimulate DNA synthesis in PC-3 cells. PC-3 cells serum starved for 24 hours were treated for an additional 24 hours in the presence of serum (10% FBS) or the indicated concentrations of LPA. BrdU was added to the medium for the last 2 hours and incorporated BrdU detected in 96-well plates by immunostaining.
FIG. 10 CCG-1423 inhibits LPA- but not FBS-stimulated DNA synthesis in PC-3 prostate cancer cells.

GAL4-VP16 Luciferase = GAL4-VP16 Luciferase control reporter; format: cell-based
PC-3 cells [5] = experiment: WST1 metabolism viability control for BrdU studies; format: cell-based, human; conditions: 10 uM, 18 hours of drug treatment, absence of serum
Description: Even more exciting are the effects of the novel inhibitors of the present invention on PC-3 cell functions (LPA-stimulated DNA synthesis, proliferation, and invasion). More particularly, it is shown that for the highly aggressive human PC-3 prostate cancer cell line, the novel inhibitors described herein inhibit proliferation, LPA-stimulated DNA synthesis, and matrix invasion. All of these effects occur at remarkably similar concentrations (IC50 900, 830, and 600 nM, respectively). This is also very similar to the concentration needed to inhibit rho-stimulated SRE.L luciferase expression in HEK293T cells (980 nM). […] Only at high concentrations (10 uM) is there any effect on proliferation or matrix invasion and there is no inhibition of BrdU incorporation as well.

SKOV-3 cells [6] = experiment: Cell growth (WST1 absorbance) of SKOV-3 cells; format: cell-based
Description: PC-3 or SKOV-3 cells (2000 per well) were plated in medium containing 2% FBS. After growth overnight, the indicated concentrations of CCG-1423 were added from a DMSO stock (<1% final) and cells allowed to continue growing for an additional 7 days. Cell growth was measured by WST1 absorbance (similar to MTT). The IC50 values for PC-3 and SKOV-3 cells were 600 nM and 3 μM. The dotted line represents a no-cell blank.

[7] = test system: Gα13/LARG/SRE transcriptional signaling pathway; experiment: Gα13QL/LARG-stimulated SRE.L luciferase reporter assay (HTS) in HEK293T cells; format: cell-based, human; conditions: for Inhibition of G13/LARG-stimulated rho transcriptional signaling: FIG. 5
Description: FIG. 2 Optimization of HTS Assay. HEK293T cells in 10 cm dishes were co-transfected with 2×-SRE luciferase reporter plasmid (3000 ng) alone or with Gα13QL (5 ng constitutive active mutant) and LARG (150 ng) expression plasmids for 5 hours. Then, the cells were plated into 96-well, and serum-starved for approx. 18 hours (0.5% Fetal Bovine Serum, DMEM medium). Cells were lysed and assayed for luciferase activity via Steady-Glo reagent (Promega) and a luminometer.
In exemplary embodiments of the present invention, HEK293T cells were transiently transfected with a 2×SRE.L-luciferase reporter plasmid that responds selectively to rho signaling (Hill et al., Cell 81:1159-1170, 1995). […] This expression plasmid is specific for rho/MKL/SRF driven gene expression. To stimulate rho, the upstream activators G13 and LARG (FIG. 1) were used. A constitutively active Gα13Q226L plasmid was co-transfected, along with an N-terminal myc-tagged LARG plasmid from Dr. Tohru Kozasa.
To use the reporter assay readout for high throughput chemical inhibition studies, the assay was modified to accommodate chemical inhibitors. Transfection was performed in 10 cm dishes with Lipofectamine 2000. Five hours after transfection, the cells were trypsinized and 30,000 cells per well were transferred into sterile white flat-bottom 96-well plates pre-spotted with 1 μl of chemical compound in DMSO (10 μM final conc). Cells were grown overnight in low serum (0.5% FBS/DMEM medium) exposed to the chemical compounds (in 1% DMSO) for approximately 18 hours before luminescence was read with Steady-Glo luciferase reagent (Promega) in a Victor II plate reader. As a positive inhibitor control, 0.5 μM of Latrunculin B was added to 8 wells per plate. In addition, 8 wells were treated with DMSO only. Latrunculin B is a marine toxin from the Red Sea sponge that is known to sequester monomeric G-actin in the cell and block rho-mediated transcriptional events (Miralles et al., Cell 113:329-342, 2003). The percent inhibition of the Gα13 QL/LARG stimulated SRE-luciferase response was calculated by setting the mean of the negative control (DMSO only) at 0% and the mean of the positive control (Latrunculin B) at 100%. The Z′ score of the assay for high throughput screening was excellent at 0.7 (FIG. 2) indicating reproducibility well-suited to HTS studies.
(§4) An exemplary screen for small molecule inhibitors of the Gα13/LARG/SRE transcriptional signaling pathway utilized a 2000 compound subset of the Maybridge Diverse Chemical Compound Library at 10 μM in the firefly luciferase assay described above. SRE transcription was stimulated by co-transfection of the constitutively active Gα13QL with LARG. […] A cutoff of 75% inhibition was chosen to identify hits for inhibition of the Gα13/LARG/SRE transcriptional signaling pathway. A total of 39 out of 2000 compounds met this criterion. […] To address this issue, a dual luciferase method with a “flash” luciferase substrate plus CMV-Renilla was used as a non-SRF-dependent reporter to eliminate toxic compounds (Table 2). This screen yielded only 4 compounds that were active and specific for the SRE.L reporter signal.

RhoA = RhoA transcriptional signal, SRE-Luciferase / CMV-Renilla dual reporters (FIG. 6); format: cell-based; conditions: 6 micromolar, added 6 hours after transfection, read 16 hours later
Description: as §3

CMV-Renilla = CMV-Renilla control reporter expression; format: cell-based
Description: as §3, §1, §4, §2

[8] = test system: RGS-rhoGEFs (LARG, PDZrhoGEF, p115rhoGEF); experiment: rhoGEF-stimulated SRE.L dual luciferase assay in HEK293 cells; format: cell-based, human; conditions: 0.5 μM
Description: Luciferase Assays—Twenty-four hours post-transfection with firefly and Renilla vectors, HEK293 cells were serum-starved (0.5% serum), and then at 48 h, luciferase activity was determined using the dual luciferase assay kit (Promega, Madison, Wis.) according to the manufacturer's instructions. The ratio of firefly to Renilla luciferase counts was calculated. Data are expressed as the percent of the control value (samples without siRNA).
In these studies, each rhoGEF plasmid DNA (p115, PDZ, or LARG) was introduced into HEK293T cells using LipofectAMINE 2000 in a 96-well plate along with the dual luciferase reporters (SRE.L and pRL-TK) and a panel of different rhoGEF siRNAs (+) or inverted mutant siRNAs (−). […] Firefly/Renilla ratios for the siRNAs (+ and −) were expressed as a percent of that for buffer controls with only the rhoGEF and reporter cDNAs transfected.

ROCK = experiment: Luciferase expression stimulated by transfecting in the kinase ROCK; format: cell-based

With “lysophosphatidic acid [LPA, reference compound]” as the compound, how does the pEC50 (PC-3 cells [1]) read?
Its pEC50 is 4.30.

Which results are given for `CC(ONC(=O)c1cc(C(F)(F)F)cc(C(F)(F)F)c1)C(=O)Nc1ccc(Cl)cc1` (stereo not drawn) [CCG-1423]?
ras-stimulated transcriptional signals (ras): inhibition; luciferase expression activated by SRF-VP16 (SRE Luciferase): inhibited; also recorded: able to inhibit; luciferase expression induced by MKL (SRE Luciferase): inhibited; SRE Luciferase stimulated by upstream (Gα13, LARG, and RhoA-GV) and downstream signals (MKL1) (SRE Luciferase; 10 μM, PC-3 cells): inhibiting; SRF-VP16 Luciferase (SRE Luciferase; 10 μM, PC-3 cells): no effect; luciferase expression induced by G13, LARG or constitutively active rhoA-GV (SRE Luciferase): inhibited; three different rho pathway activators (G13, rhoA-GV, and MKL1) (SRE Luciferase; FIG. 13): Inhibition; inhibition of BrdU incorporation [2]: no inhibition; concentration at which there is any effect on matrix invasion (SKOV-3 cells [3]): 10 µM; RhoC transcriptional signal (rhoC-stimulated luciferase expression) (RhoC): inhibits; FBS (serum)-stimulated DNA synthesis [4]: not inhibited until high concentrations are reached; Gal-4-VP16 Luciferase signal (GAL4-VP16 Luciferase; 3 μM): only a slight inhibitory effect; GAL4-VP16 Luciferase (GAL4-VP16 Luciferase; 10 μM, PC-3 cells): no effect; viable cells (WST1 metabolism) (PC-3 cells [5]): no decrease in viable cells; concentration at which there is any effect on proliferation (SKOV-3 cells [6]): 10 µM; pIC50 (SKOV-3 cells [6]; 2% FBS, 7 days, WST1): 5.52; Inhibition of G13/LARG-stimulated rho transcriptional signaling [7]: Inhibition; pIC50 ([7]; HEK293T cells, dose response curves, read-out: IC50, inhibition of G13/LARG (rho-) stimulated SRE.L luciferase expression): ~6.00 and 6.01 and 6.10; pIC50 ([7]; HTS reporter assay, read-out: IC50, inhibition of MKL/SRF-dependent gene transcription): ~6.10; RhoA transcriptional signal (SRE-Luciferase) (RhoA): blocking; also recorded: inhibits; CMV-Renilla expression (CMV-Renilla; 3 μM): did not inhibit; CMV-driven Renilla expression (CMV-Renilla; 10 μM, PC-3 cells): does not inhibit; control reporter CMV-Renilla expression (CMV-Renilla; concentration not given): not inhibited; also recorded: no effect

With `C/C1=C/C(=O)O[C@@H]2C[C@@H](CC[C@H](C)/C=C\CC1)O[C@@](O)([C@@H]1CSC(=O)N1)C2` [Latrunculin B, reference compound] as the compound, how does the “SRE.L rho reporter signal activated by ras” value (ras; FIG. 14) read?
Its value is “blocked”.

And the ras-stimulated transcriptional signals (ras)?
Its ras-stimulated transcriptional signals is “not”.

What about the rhoGEF-stimulated luciferase signal [8] of the same compound?
The rhoGEF-stimulated luciferase signal was “completely eliminated”.

And the “luciferase expression activated by SRF-VP16” value (SRE Luciferase)?
Its value is “did not inhibit”.

And the “luciferase expression induced by G13, LARG or constitutively active rhoA-GV” value (SRE Luciferase)?
Its value is “fully inhibits”.

What about the “Inhibition of G13/LARG-stimulated rho transcriptional signaling” value [7] of the same compound?
The value was “Inhibition”.

What does the source list for `C[C@@H](N)[C@H]1CC[C@H](C(=O)Nc2ccncc2)CC1` [Y-27632, reference compound]?
luciferase expression stimulated by transfecting in the kinase ROCK (ROCK): fully inhibited; Inhibition of G13/LARG-stimulated rho transcriptional signaling [7]: only partially blocked; also recorded: Inhibition

How did the pEC50 (PC-3 cells [1]) turn out when thrombin was run?
Its pEC50 is 7.10.
